Assay results taken from patent US4906661A, “Esters of aryloxypropanolamine derivatives” (E. I. Du Pont de Nemours and Company, priority 1989, dated 1990).
Where a name gives a salt, the structure may show the parent alone. Read-outs that look alike come from different tables or passages of the source.

How the values were obtained:
[1] = target: β1 receptors, guinea pig right atria (Cavia porcellus, UniProt H0W3H1); assay: cell-based; conditions: for Kb: read-out: pA2 Atria (converted)
Method: Each tissue was suspended between a fixed glass rod and a Statham Universal Transducer connected to a Beckman recorder. Atria were allowed to beat spontaneously under a loading tension of approximately 0.5 gm. Intrinsic depressant or stimulant activity was determined for each compound by progressively increasing concentrations in the tissue baths at 60-minute intervals. Tissues were not washed between increments. The maximum concentration showing little or no cardiodepressant activity was chosen for blockade experiments. Changes in rate in response to isoproterenol, a standard β-receptor agonist, were measured in the absence and presence of test compounds. Spiral strips of guinea pig trachea were suspended under 5 gm resting tension and incubated with phentolamine, tropolone and cocaine. Active tension was generated by addition of carbachol (3.0×10^-7 M) and decreases in tension in response to isoproterenol were quantitated. Cumulative concentration-response curves were produced with isoproterenol both before and after 60-minute incubation of test compounds with atria and trachea. […] The blocking potency of test compounds was estimated by computing pA2 values (-log KB) by the method of Furchgott, the Pharmacological Differentiation of Adrenergic Receptors, Ann. […] The degree of cardioselectivity was estimated from the ratio, KB trachea/KB atria (10^(pA2 atria-pA2 trachea)). A ratio greater than one indicates cardioselectivity. Test drugs were dissolved in distilled water and added to the bath (30 ml) in a volume of 10 or 100 μl.

[2] = system: heart rate response to isoproterenol; assay: Duration and potency of beta-blocking action in vivo, 3-hour infusion in anesthetized dogs, isoproterenol challenge; design: species or system dog; conditions: for Duration, time for 50% recovery from 50% blockade levels: Table IV, after infusion of drug, mean ± SEM; for Recovery Time 50%: 50% recovery from β-blockade after termination of infusion; for Recovery Time 80%: 80% recovery from β-blockade after termination of infusion; for % I, percent inhibition of heart rate response to isoproterenol: end of 3-hour infusion, isoproterenol 0.5 μg/kg
Method: The duration of β-blockade was determined In vivo using pentobarbital-anesthetized dogs instrumented for measurement of heart rate using a Beckman cardiotachometer triggered electronically by a phasic aortic blood pressure signal. Both vagus nerves were served in the cervical region and the animals were mechanically ventilated. The experimental design used employed a 3-hour infusion of test compound. Bolus doses of isoproterenol (0.5 μg/kg) were used to assess the degree of β-blockade and recovery from β-blockade after […] of the infusion. The doses were spaced at 10-minute intervals and were given before, during and following the infusion of test compounds. The infusion rate was adjusted so that at the end of the 3-hour infusion period the degree of isoproterenol inhibition averaged about 50% of control. Following termination of blocker infusion, percent recovery from β-blockade was computed and the time associated with 80% recovery estimated.
^c Time in minutes for 50% recovery from 50% blockade levels after 3
Infusions of drug. Number of experiments is equal to or greater than thre
for each compound unless noted otherwise. Tabulated data are mean values
^c The betablocking activities were evaluated Invivo in a canine
model. The betablocker was infused in the animal for 3 hours with the dos
adjusted to give approximately 50%. blockage of the Isoproternolinduced
tachycardia. The infusion was then terminated and the time required for
80% recovery of blockade was recorded as duration of action of the
compound. The amount of drug infused during the 3 hours was averaged and
expressed as potency in ug/kg/min.

[3] = target: β2 receptors, guinea pig trachea (Cavia porcellus, UniProt Q8K4Z4); assay: cell-based
Method: Each tissue was suspended between a fixed glass rod and a Statham Universal Transducer connected to a Beckman recorder. Atria were allowed to beat spontaneously under a loading tension of approximately 0.5 gm. Intrinsic depressant or stimulant activity was determined for each compound by progressively increasing concentrations in the tissue baths at 60-minute intervals. Tissues were not washed between increments. […] Changes in rate in response to isoproterenol, a standard β-receptor agonist, were measured in the absence and presence of test compounds. Spiral strips of guinea pig trachea were suspended under 5 gm resting tension and incubated with phentolamine, tropolone and cocaine. Active tension was generated by addition of carbachol (3.0×10^-7 M) and decreases in tension in response to isoproterenol were quantitated. Cumulative concentration-response curves were produced with isoproterenol both before and after 60-minute incubation of test compounds with atria and trachea. […] The blocking potency of test compounds was estimated by computing pA2 values (-log KB) by the method of Furchgott, the Pharmacological Differentiation of Adrenergic Receptors, Ann. […] A ratio greater than one indicates cardioselectivity. Test drugs were dissolved in distilled water and added to the bath (30 ml) in a volume of 10 or 100 μl.

[4] = topical (eye), Physicians' Desk Reference 1981; cited from earlier work
[5] = Table IV, mean, n ≥ 2, range ≤ ± 0.2 units
[6] = Table IV, mean, n ≥ 2, range ≤ ± 0.2 units, read-out: pA2 Trachea (converted)

Sequence of β2 receptors, guinea pig trachea (Q8K4Z4 whole entry): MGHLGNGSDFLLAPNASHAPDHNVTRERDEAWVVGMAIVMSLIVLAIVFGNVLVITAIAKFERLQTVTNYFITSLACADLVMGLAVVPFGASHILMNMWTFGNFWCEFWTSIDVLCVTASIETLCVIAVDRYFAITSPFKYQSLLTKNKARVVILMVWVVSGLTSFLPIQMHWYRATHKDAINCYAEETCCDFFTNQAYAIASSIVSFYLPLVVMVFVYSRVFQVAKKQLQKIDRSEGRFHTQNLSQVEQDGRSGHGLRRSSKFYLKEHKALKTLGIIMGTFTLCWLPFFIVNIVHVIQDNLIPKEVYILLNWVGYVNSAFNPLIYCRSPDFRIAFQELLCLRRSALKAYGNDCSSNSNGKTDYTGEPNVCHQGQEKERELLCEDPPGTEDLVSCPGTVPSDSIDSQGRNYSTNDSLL
Sequence of β1 receptors, guinea pig right atria (H0W3H1 1-470): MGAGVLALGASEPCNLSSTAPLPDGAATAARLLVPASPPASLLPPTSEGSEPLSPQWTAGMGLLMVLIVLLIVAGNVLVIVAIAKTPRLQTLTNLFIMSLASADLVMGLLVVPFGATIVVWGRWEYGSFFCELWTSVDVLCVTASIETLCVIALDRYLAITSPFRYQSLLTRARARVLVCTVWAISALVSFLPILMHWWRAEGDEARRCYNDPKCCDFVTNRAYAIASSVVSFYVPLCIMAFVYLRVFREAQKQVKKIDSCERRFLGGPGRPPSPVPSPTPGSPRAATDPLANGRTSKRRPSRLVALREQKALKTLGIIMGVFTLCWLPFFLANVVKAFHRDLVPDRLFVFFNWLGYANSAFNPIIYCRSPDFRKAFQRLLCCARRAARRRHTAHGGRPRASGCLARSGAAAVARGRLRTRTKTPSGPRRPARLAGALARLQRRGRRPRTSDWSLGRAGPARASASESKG

Kb [1, 5] [nM]	Kb [3, 6] [nM]	SMILES	Duration, time for 50% recovery from 50% blockade levels [2] [min]	other results
		CCOC(=O)CCc1nsnc1OCC(O)CNCCNS(=O)(=O)N1CCOCC1 (stereo not shown) [No. 7 (Table VI)]		Kb ([1]; Table VI): 794 nM
501	316	CCOC(=O)CCc1ccc(OCC(O)CNCCNC(C)=O)cc1 (stereo not shown) [No. 9 (Table IV)]	10 ± 4	
794	398	CCOC(=O)CCc1ccc(OCC(O)CNCCNC(=O)C(C)C)cc1 (stereo not shown) [No. 10 (Table IV)]	6 ± 3	
	398	CCOC(=O)CCc1ccc(OCC(O)CNC(C)(C)CNC(=O)C2CCCCC2)cc1 (stereo not shown) [No. 11 (Table IV)]		
31.6	1260	CCOC(=O)CCc1ccc(OCC(O)CNCCNC(=O)Cc2ccccc2)cc1 (stereo not shown) [No. 12 (Table IV)]	6 ± 4	
1000	398	CCOC(=O)CCc1ccc(OCC(O)CNC(C)(C)CNC(N)=O)cc1 (stereo not shown) [No. 13 (Table IV)]	12 ± 4	
794	200	CCOC(=O)CCc1ccc(OCC(O)CNC(C)(C)CNC(=O)OCC)cc1 (stereo not shown) [No. 14 (Table IV)]		
1580	316	CCOC(=O)CCc1ccc(OCC(O)CNC(C)(C)CNS(=O)(=O)N(C)C)cc1 (stereo not shown) [No. 15 (Table IV)]		pA2 Atria [1, 5]: 5.8; pA2 Trachea [3, 5]: 6.5
		CCOC(=O)CCc1ccc(OCC(O)CNCCNS(=O)(=O)N(C)C)cc1 (stereo not shown) [No. 16 (Table IV)]		pA2 Atria [1, 5]: 5.8; pA2 Trachea [3, 5]: 5.7
1000	6310	CCOC(=O)CCc1ccc(OCC(O)CNCCNS(=O)(=O)c2ccc(C)cc2)cc1 (stereo not shown) [No. 17 (Table IV)]		
501	251	CCOC(=O)CCc1ccc(OCC(O)CNC(C)(C)CNS(=O)(=O)c2ccccc2)cc1 (stereo not shown) [No. 18 (Table IV)]		
15.8	200	CCOC(=O)CCc1ccc(OCC(O)CNC(C)(C)CNC(=O)N2CCOCC2)cc1 (stereo not shown) [No. 19 (Table IV)]	21 ± 4	
		CC(C)NCC(O)COc1cccc2ccccc12 (stereo not shown) [Propranolol, reference compound]	> 60	Potency ([2]; Table II, 3-hour infusion, dog): 0.225 mg/kg/180 min; Recovery Time 50% ([2]; Table II): > 60 min; Recovery Time 80% ([2]; Table II): > 60 min; % I, percent inhibition of heart rate response to isoproterenol ([2]; Table II): 67 ± 6%
		CC(C)(C)NC[C@H](O)COc1nsnc1N1CCOCC1 [Timolol, reference compound]	> 60	
		COC(=O)c1ccccc1OCC(O)CNC(C)(C)CNS(=O)(=O)c1ccccc1 (stereo not shown) [VIII, Methyl 2-[2-Hydroxy-3-[N-[1,1-dimethyl-2-(phenylsulfonylamino)ethyl]amino]proxy]benzoate Oxalate]		Recovery Time 50% ([2]; Table II): 26 ± 6 min; Recovery Time 80% ([2]; Table II): > 60 min; % I, percent inhibition of heart rate response to isoproterenol ([2]; Table II): 74%; Kb ([3]; Table I, guinea pig trachea, vs isoproterenol, -log KB, read-out: PA2 Trachea (converted)): 1.58 nM
		CC(C)(C)NC[C@H](O)COc1nsnc1N1CCOCC1 [timolol maleate]		adverse reactions to the topical use [4]: bronchospasm and heart failure, as well as cardiac conduction defects
